Experimental data from the OPERA property sets (Mansouri et al. 2018).
Where a SMILES comes first, the peptide text is derived from it.

| SMILES | logP |
| --- | --- |
| CC(=O)N[C@@H](CO)C(=O)N[C@H](C(N)=O)C(C)C (Ac-Ser-Val-NH2) | -1.53 |
| CCC(C)C(NC(=O)C(CC(C)C)NC(C)=O)C(=O)NC(CCC(=O)O)C(N)=O (stereo not drawn) (Ac-Leu-Ile-Glu-NH2; configuration not given here) | 0.07 |
| Cc1c([N+](=O)[O-])ncn1C | -0.11 |
| CC(=O)OC1C(=O)C2(C)C(O)CC3OCC3(OC(C)=O)C2C(OC(=O)c2ccccc2)C2(O)CC(OC(=O)C(O)CNC(=O)c3ccccc3)C(C)=C1C2(C)C (configuration not stated) | 1.75 |
| CCCCOc1ccc(NC(=O)OCCN2CCOCC2)cc1 | 3.35 |
| C#CCOc1c(Cl)cc(NC=NOCc2ccccc2)cc1Cl | 4.2 |
| CC1CC2C3CCC4=CC(=O)C=CC4(C)C3(F)C(O)CC2(C)C1(O)C(N)=O (configuration not stated) | 1.41 |
| CC(=O)OC1(c2ccccc2)CCN(C)C(C)C1C (configuration not stated) | 2.52 |
| CSC(=O)c1c(C(F)F)nc(C(F)(F)F)c(C(=O)SC)c1CC(C)C | 4.75 |
| Clc1cccc(-c2c(Cl)c(Cl)c(Cl)c(Cl)c2Cl)c1 | 7.3 |
| Cc1ccc(C(=O)COc2c(C(=O)c3ccc(Cl)c(C)c3Cl)c(C)nn2C)cc1 | 4.69 |
| Cc1nnc[nH]1 | -0.55 |
| Cc1cc(C)cc(Cl)c1 | 3.88 |
| O=C(O)C(OCc1ccc(Cl)cc1)c1ccccc1 (configuration not stated) | 2.6 |
| O=C1C(=O)N(c2ccccc2)C(=O)c2ccccc21 | 1.14 |
| CC(CCC(N)=O)n1nnc2ccccc21 (configuration not stated) | 1.15 |
| O=[N+]([O-])C=C1NCCN1CCc1ccc(Cl)nc1 | -0.23 |
| S=C=NCCCCCc1ccccc1 | 4.4 |
| C(=C\c1ccccc1)/CN1CCN(C(c2ccccc2)c2ccccc2)CC1 | 5.77 |
| C=C1C(=O)OC2CC(C)C3C=CC(=O)C3(C)C(OC(=O)CCCC(=O)OC3C4C(=C)C(=O)OC4CC(C)C4C=CC(=O)C43C)C12 (configuration not stated) | 1.37 |
| CN1C=CCC(C(=O)OC2CCC(NC(=O)N(CCCl)N=O)CC2)=C1 (configuration not stated) | 2.53 |
| Clc1ccc(Cl)c(-c2c(Cl)c(Cl)c(Cl)c(Cl)c2Cl)c1 | 7.93 |
| Clc1cc(Cl)c(-c2cc(Cl)c(Cl)c(Cl)c2)c(Cl)c1 | 7.25 |
| C=CCOC1=NS(=O)(=O)c2ccccc21 | 1.4 |
| Cc1ccc(OCc2ccccc2CCCN2CCC(O)CC2)cc1 | 3.5 |
| Cc1ccc(C)c(NN=C(C#N)C#N)c1 | 3.08 |

| SMILES | logP |
| --- | --- |
| Clc1cc(Cl)c2oc3c(Cl)cc(Cl)c(Cl)c3c2c1 | 6.34 |
| CS(=O)(=O)c1ccc2ccccc2c1 | 1.74 |
| COC1=CC2CCC(NC(C)=O)c3cc(=O)c(OC)ccc3C2C(OC)=C1O (configuration not stated) | 0.47 |
| CN(CO)c1nc(N(C)CO)nc(N(C)CO)n1 | 0.4 |
| CCCCCOc1ccc2ccc(=O)oc2c1 | 3.92 |
| COC(=O)CNC(=O)C1(O)C(C)CC2C3CCC4=CC(=O)C=CC4(C)C3(F)C(O)CC21C (configuration not stated) | 1.69 |
| CCCCOC(=O)n1cc(F)c(=O)[nH]c1=O | 0.89 |
| Nc1nc(NCCO)c(Cl)nc1[N+](=O)[O-] | 0.12 |
| CCNc1nc(NC)nc(SC(F)F)n1 | 2.68 |
| O=C(O)Cc1nn(Cc2nc3cc(Br)ccc3s2)c(=O)c2ccccc12 | 3.35 |
| Clc1ccc(-c2c(Cl)c(Cl)cc(Cl)c2Cl)cc1Cl | 7.2 |
| COc1ccc(OCCO)cc1 | 1.13 |
| OC1CCN(CCCc2ccccc2CSc2ccccc2)CC1 | 3.85 |
| c1ccc(-c2nnn[nH]2)cc1 | 1.65 |
| COc1cccc(C(=O)NP(=O)(N2CC2)N2CC2)c1 | 0.86 |
| CN(C)CCC[N+]1([O-])c2ccccc2Sc2ccccc21 | 1.9 |
| CC(C)C(=O)NS(=O)(=O)c1ccc(C(F)(F)F)cc1N | 2.56 |
| CCC(=O)C(CS(=O)(=O)c1ccccc1)c1ccccc1 (configuration not stated) | 1.82 |
| Clc1cccc(-c2c(Cl)c(Cl)cc(Cl)c2Cl)c1Cl | 7.25 |
| CCCCc1ccc(C(=O)OCCN(C)C)cc1 | 4.06 |
| CCOC(CNC(=O)C1(O)C(C)CC2C3CCC4=CC(=O)C=CC4(C)C3(F)C(O)CC21C)OCC (configuration not stated) | 2.65 |
| C=C(C)c1c(OC)cc(Cc2cnc(N)nc2N)cc1OCC | 2.65 |
| CC(C)OC(=O)n1cc(F)c(=O)[nH]c1=O | 0.2 |
| CCCCCCOC(=O)Oc1cccc(C2(C(=O)CC)CCN(C)CC2)c1 | 3.38 |
| CC(C)(C)C(=O)OCn1cc2c(=O)[nH]cnc2n1 | 0.79 |
| CC(=O)OC1C(=O)C2(C)C(O)CC3OCC3(OC(C)=O)C2C(OC(=O)c2ccccc2)C2(O)CC(OC(=O)C(C)O)C(C)=C1C2(C)C (configuration not stated) | 1.52 |

| SMILES | logP |
| --- | --- |
| CNc1nc(Cl)c(SC)c(N2CCN(C)CC2)n1 | 2.99 |
| Nc1ncc(Cc2ccccc2Cl)c(N)n1 | 2.24 |
| CCN(CC)C(=O)COC(=O)c1ccccc1O | 1.99 |
| OCC1CC(F)C(n2cnc3c(I)ncnc32)O1 (configuration not stated) | 0.63 |
| CNC(=NC#N)NCCSCc1ncn(COC(=O)C(C)(C)C)c1C | 1.81 |
| NC1=NCC2c3ccccc3Cc3ccccc3N12 (configuration not stated) | 3.51 |
| COC(=O)C(C#N)=NNc1ccc(S(=O)(=O)C(F)(F)F)cc1 | 4.22 |
| CC(C)CN1C(=O)C(=O)c2ccccc2C1=O | 2.08 |
| Cc1cc(O)cc(Br)c1O | 1.38 |
| COc1ccc2cc(C(C)C(=O)OCC(N)=O)ccc2c1 (configuration not stated) | 2.06 |
| CCOCCN(CCOCC)CC(O)c1cc(-c2ccc(Cl)c(Cl)c2)nc2ccccc12 (configuration not stated) | 5.76 |
| O=C1OC(O)C(C(Cl)Cl)=C1Cl (configuration not stated) | 1.13 |
| c1ccc(Cn2ncnn2)cc1 | 1.03 |
| COc1ccccc1NC(=O)OCCN1CCOCC1 | 1.73 |
| O=S1(=O)NC(C2CCCCC2)=Nc2ccccc21 | 2.2 |
| Clc1cc(Cl)c(-c2cc(Cl)c(Cl)c(Cl)c2)cc1Cl | 7.5 |
| Cc1ccc(NN=C(C#N)C#N)c([N+](=O)[O-])c1 | 2.5 |
| Cc1ccc(Cl)c(Cl)c1 | 3.95 |
| Cc1nnc(SCC2=C(C(=O)OCOC(=O)C(C)(C)C)N3C(=O)C(NC(=O)Cn4cnnn4)C3SC2)s1 (configuration not stated) | 1.34 |
| CC(=O)OC1C(=O)C2(C)C(O)CC3OCC3(OC(C)=O)C2C(OC(=O)c2ccccc2)C2(O)CC(OC(=O)C(O)Cc3ccccc3)C(C)=C1C2(C)C (configuration not stated) | 2.9 |
| COc1ccccc1SCc1ccccc1CCCN1CCC(O)CC1 | 3.58 |
| CCCn1c(=O)c2[nH]c(-c3ccc(Cl)cc3N)nc2n(CCC)c1=O | 4.02 |
| CC(=O)NC(CCCN)C(=O)NC(Cc1ccccc1)C(N)=O (configuration not stated) | 0.41 |
| Cc1ccc(C)c(Cl)c1 | 3.86 |
| Clc1cc(Cl)cc(-c2cccc(Cl)c2Cl)c1 | 6.17 |
| CC(C1CC1)C(O)(Cn1cncn1)c1ccc(Cl)cc1 (configuration not stated) | 2.9 |

| SMILES | logP |
| --- | --- |
| CC(C)(C)c1ccc2c(c1)OCCOCCOCCOCCOCCO2 | 1.71 |
| C=CCn1cccn1 | 0.35 |
| CCN(C=Nc1ccn(C2OC(CO)C(O)C2O)c(=O)n1)CC (configuration not stated) | -0.76 |
| Clc1cc(Cl)c(Cl)c(-c2cc(Cl)cc(Cl)c2Cl)c1 | 7.07 |
| Clc1cc2c(c(Cl)c1Cl)Oc1c(Cl)cccc1O2 | 6.39 |
| O=C(c1ccc(F)cc1)C1CCN(CCn2c(=O)[nH]c3ccccc3c2=O)CC1 | 3.29 |
| CC1=NCCC1 | 1.87 |
| CCOc1ccccc1OCc1ccccc1CCCN1CCC(O)CC1 | 3.1 |
| CCOC(CC)(OCC)OCC | 1.97 |
| O=C(O)c1ccc(CCl)cc1 | 2.12 |
| CNC(=NC#N)NCCSCc1nccs1 | 0.89 |
| Cc1ccc(C(=O)OCCN(C)C)cc1 | 2.53 |
| CCN1CC(C(O)C(CC2CCCCC2)NC(=O)C(Cc2c[nH]cn2)NC(=O)C(Cc2ccc(OC)cc2)NC(=O)N(C)CCOCOC)OC1=O (configuration not stated) | 2.3 |
| CCC(=O)OC(C(=O)NC1C(=O)N2C(C(=O)O)=C(C)CSC12)c1ccccc1 (configuration not stated) | 1.47 |
| CCC1COC(Cn2cncn2)(c2ccc(-n3cncn3)cc2Cl)O1 (configuration not stated) | 1.28 |
| COC1CC(OC2CCC3(C=O)C4CCC5(C)C(C6=CC(=O)OC6)CCC5(O)C4CCC3(O)C2)OCC1OC1CC(O)C(O)C(C)O1 (configuration not stated) | -0.96 |
| NC(=O)c1ccccc1N=NN1CCC1 | 2.91 |
| CC(C)(C)C(=O)C(C#N)=NNc1cc(C(F)(F)F)cc(C(F)(F)F)c1 | 5.44 |
| CCC1CC(C(=O)NC(C(C)O)C2OC(SC)C(O)C(O)C2O)N(C)C1 (configuration not stated) | -0.4 |
| Cc1n[nH]c(C(=O)NCc2ccccc2)c1[N+](=O)[O-] | 1.49 |
| C#CCC(O)(c1cccnc1)c1ccc2ccccc2c1 (configuration not stated) | 2.14 |
| NC1C2CCC1c1ccccc1C2 (configuration not stated) | 1.63 |
| CC(=O)NC(Cc1ccccc1)C(=O)NC(CCCCN)C(N)=O (configuration not stated) | 0.14 |
| O=[N+]([O-])c1ccc2c(O)cccc2c1 | 3.5 |
| CC(C)NCC(O)COCCCc1ccccc1 (configuration not stated) | 1.94 |
| S=C(N/N=C/c1ccc[nH]1)Nc1ccccc1 | 3.73 |

| SMILES | logP |
| --- | --- |
| Nc1ccccc1S(N)(=O)=O | 0.22 |
| C=CCC1CN(C)CCC1(OC(=O)CC)c1ccccc1 (configuration not stated) | 2.97 |
| OCC1CC(F)C(n2cnc3c(F)ncnc32)O1 (configuration not stated) | 0.06 |
| CCCCCOc1ccccc1NC(=O)OCCN1CCOCC1 | 3.7 |
| NC(=O)Cc1cccc2cccnc12 | 1.87 |
| O=[N+]([O-])C=C1NCCCN1Cc1ccc(Cl)nc1 | -0.62 |
| CCc1ccc(OCc2ccccc2CCCN2CCC(O)CC2)cc1 | 3.75 |
| CC(C)(C)n1ccnc1C=NO | 0.85 |
| CNC(=O)N(C)c1nnc(C(C)(C)C)s1 | 1.79 |
| CC(=O)NC(Cc1ccccc1)C(=O)NC(CC(=O)O)C(=O)NC(CC(C)C)C(N)=O (stereo not drawn) (Ac-Phe-Asp-Leu-NH2; configuration not given here) | 0.39 |
| NC(=O)C(=Cc1ccc([N+](=O)[O-])o1)c1ccco1 | 0.15 |
| COc1nc(N)nc(C(Cl)(Cl)Cl)n1 | 2.39 |
| CSCCCNC(=O)C(F)(F)Cn1cnc([N+](=O)[O-])n1 | 0.76 |
| C#CCC(O)(c1cccnc1)c1ccc(Cl)cc1Cl (configuration not stated) | 2.29 |
| CC(NC(=O)N(CCCl)N=O)C(=O)O (configuration not stated) | 0.78 |
| CCCCCOc1ccc(NC(=O)OCCN2CCOCC2)cc1 | 3.96 |
| Nc1ncnc2c1nc(F)n2C1CCC(CO)O1 (configuration not stated) | -0.03 |
| O=[N+]([O-])C=C1NCCN1Cc1ccccc1 | 0.33 |
| CCN1C(=O)C(=O)c2cc3ccccc3cc2C1=O | 2.47 |
| CCCN1C(=O)C(=O)c2ccccc2C1=O | 1.6 |
| OC1CCN(CCCc2ccccc2COc2ccccc2)CC1 | 3.21 |
| CCN(CC)C(=O)c1cccc2c1C(=O)C(=O)N(CC)C2=O | 0.78 |
| CC1OC(OC2C(C)OC(OC3C(C)OC(OC4CCC5(C)C(CCC6C5CCC5(C)C(C7=CC(=O)OC7)C(OC=O)CC65OC=O)C4)CC3OC=O)CC2OC=O)CC(O)C1OC=O (configuration not stated) | 3.16 |
